Measured values published in patent publication US10689377B2 (Mirati Therapeutics, Inc., priority 2017, dated 2020).

target: KRas G12C (Homo sapiens, UniProt P01116, G12C); assay: Cellular inhibition of KRas G12C measured by Phospho-ERK in NCI-H358 cells; type: cell-based; conditions: pERK(Thr202/Tyr204) normalized with GAPDH, NCI-H358 cells, 3 hours; read-out: IC50
Procedure, shortened: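 NCI-H358 cells treated 3 h with compound (0.5% DMSO final), then fixed and methanol-permeabilised. In-cell immunofluorescence measured pERK(Thr202/Tyr204) normalised to GAPDH as percent of DMSO control. IC50 from a 4-parameter dose-response fit.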

KRas G12C, sequence (P01116 1-188 isoform P01116-2 G12C): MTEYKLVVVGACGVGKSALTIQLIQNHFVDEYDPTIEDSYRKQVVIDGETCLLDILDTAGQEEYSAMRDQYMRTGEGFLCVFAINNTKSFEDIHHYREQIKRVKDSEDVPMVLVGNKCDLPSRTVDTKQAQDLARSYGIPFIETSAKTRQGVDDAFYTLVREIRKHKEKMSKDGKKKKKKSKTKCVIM

`C=CC(=O)N1CCN(c2nc(OC[C@@H]3CCCN3C)nc3c2CCN(c2cccc4cccnc24)C3)CC1CC#N` (stereo partly drawn) [Example 247, 2-(1-acryloyl-4-(2-(((S)-1-methylpyrrolidin-2-yl)methoxy)-7-(quinolin-8-yl)-5,6,7,8-tetrahydropyrido[3,4-d]pyrimidin-4-yl)piperazin-2-yl)acetonitrile] and `C=CC(=O)N1CCN(c2nc(OC[C@@H]3CCCN3C)nc3c2CCN(c2cccc4ncccc24)C3)CC1CC#N` (stereo partly drawn) [Example 264, 2-[4-[2-[[(2S)-1-methylpyrrolidin-2-yl]methoxy]-7-(5-quinolyl)-6,8-dihydro-5H-pyrido[3,4-d]pyrimidin-4-yl]-1-prop-2-enoyl-piperazin-2-yl]acetonitrile] cannot be ordered by IC50: > 1 µM for the first, > 1 µM for the second.

Compared with `C=CC(=O)N1CCN(c2nc(OC[C@@H]3CCCN3C)nc3c2CCN(c2c(Cl)ccc4[nH]ncc24)C3)CC1` [Example 250, 1-[4-[7-(5-chloro-1H-indazol-4-yl)-2-[[(2S)-1-methylpyrrolidin-2-yl]methoxy]-6,8-dihydro-5H-pyrido[3,4-d]pyrimidin-4-yl]piperazin-1-yl]prop-2-en-1-one], `C=CC(=O)N1CCN(c2nc(OC[C@@H]3CCCN3C)nc3c2CCN(c2c(F)cccc2C(F)(F)F)C3)CC1CC#N` (stereo partly drawn) [Example 275] is lower in IC50: > 1 µM for the first, 0.0001 to 1 µM for the second.

Compared with `C=CC(=O)N1CCN(c2nc(OC[C@@H]3CCCN3C)nc3c2CCN(c2cccc4ccc(Cl)cc24)C3)CC1CC#N` (stereo partly drawn) [Example 253, 2-(1-acryloyl-4-(7-(7-chloronaphthalen-1-yl)-2-(((S)-1-methylpyrrolidin-2-yl)methoxy)-5,6,7,8-tetrahydropyrido[3,4-d]pyrimidin-4-yl)piperazin-2-yl)acetonitrile], `C=CC(=O)N1CCN(c2nc(OC[C@@H]3CCCN3C)nc3c2CCN(c2cccc4ccc(OC)cc24)C3)CC1CC#N` (stereo partly drawn) [Example 255, 2-[4-[7-(7-methoxy-1-naphthyl)-2-[[(2S)-1-methylpyrrolidin-2-yl]methoxy]-6,8-dihydro-5H-pyrido[3,4-d]pyrimidin-4-yl]-1-prop-2-enoyl-piperazin-2-yl]acetonitrile] is higher in IC50: 0.0001 to 1 µM for the first, > 1 µM for the second. The first is the more potent here.

`C=CC(=O)N1CCN(c2nc(OC[C@@H]3CCCN3C)nc3c2CCN(c2cccc4c(F)cccc24)C3)CC1CC#N` (stereo partly drawn) [Example 254, 2-[4-[7-(5-fluoro-1-naphthyl)-2-[[(2S)-1-methylpyrrolidin-2-yl]methoxy]-6,8-dihydro-5H-pyrido[3,4-d]pyrimidin-4-yl]-1-prop-2-enoyl-piperazin-2-yl]acetonitrile] and `C=CC(=O)N1CCN(c2nc(OC[C@@H]3CCCN3C)nc3c2CCN(c2cccc4cc(F)ccc24)C3)CC1CC#N` (stereo partly drawn) [Example 259, 2-[4-[7-(6-fluoro-1-naphthyl)-2-[[(2S)-1-methylpyrrolidin-2-yl]methoxy]-6,8-dihydro-5H-pyrido[3,4-d]pyrimidin-4-yl]-1-prop-2-enoyl-piperazin-2-yl]acetonitrile] fall in the same range of IC50: 0.0001 to 1 µM for the first, 0.0001 to 1 µM for the second.

Compared with `C=CC(=O)N1CCN(c2nc(OC[C@@H]3CCCN3C)nc3c2CCN(c2cccc4ccccc24)C3)CC1COC` (stereo partly drawn) [Example 256, 1-(2-(methoxymethyl)-4-(2-(((S)-1-methylpyrrolidin-2-yl)methoxy)-7-(naphthalen-1-yl)-5,6,7,8-tetrahydropyrido[3,4-d]pyrimidin-4-yl)piperazin-1-yl)prop-2-en-1-one], `C=CC(=O)N1CCN(c2nc(OC[C@@H]3CCCN3CCOC)nc3c2CCN(c2cccc4ccccc24)C3)CC1CC#N` (stereo partly drawn) [Example 266, 2-(1-acryloyl-4-(2-(((S)-1-(2-methoxyethyl)pyrrolidin-2-yl)methoxy)-7-(naphthalen-1-yl)-5,6,7,8-tetrahydropyrido[3,4-d]pyrimidin-4-yl)piperazin-2-yl)acetonitrile] is lower in IC50: > 1 µM for the first, 0.0001 to 1 µM for the second.

First: C=CC(=O)N1CCN(c2nc(OC[C@@H]3CCCN3C)nc3c2CCN(c2nccc4ccccc24)C3)CC1CC#N (stereo partly drawn) [Example 258, 2-[4-[7-(1-isoquinolyl)-2-[[(2S)-1-methylpyrrolidin-2-yl]methoxy]-6,8-dihydro-5H-pyrido[3,4-d]pyrimidin-4-yl]-1-prop-2-enoyl-piperazin-2-yl]acetonitrile]
Second: C=CC(=O)N1CCN(c2nc(OC[C@@H]3CCCN3C)nc3c2CCN(c2ccnc4ccccc24)C3)CC1CC#N (stereo partly drawn) [Example 278, 2-(1-acryloyl-4-(2-(((S)-1-methylpyrrolidin-2-yl)methoxy)-7-(quinolin-4-yl)-5,6,7,8-tetrahydropyrido[3,4-d]pyrimidin-4-yl)piperazin-2-yl)acetonitrile]
The IC50 of the first is higher: > 1 µM for the first, 0.0001 to 1 µM for the second.

First: C=CC(=O)N1CCN(c2nc(OC[C@@H]3CCCN3C)nc3c2CCN(c2cncc4ccccc24)C3)CC1CC#N (stereo partly drawn) [Example 260, 2-[4-[7-(4-isoquinolyl)-2-[[(2S)-1-methylpyrrolidin-2-yl]methoxy]-6,8-dihydro-5H-pyrido[3,4-d]pyrimidin-4-yl]-1-prop-2-enoyl-piperazin-2-yl]acetonitrile]
Second: C=CC(=O)N1CCN(c2nc(OC[C@@H]3CCCN3C)nc3c2CCN(c2cccc4cnccc24)C3)CC1CC#N (stereo partly drawn) [Example 262, 2-[4-[7-(5-isoquinolyl)-2-[[(2S)-1-methylpyrrolidin-2-yl]methoxy]-6,8-dihydro-5H-pyrido[3,4-d]pyrimidin-4-yl]-1-prop-2-enoyl-piperazin-2-yl]acetonitrile]
The IC50 of the first is lower: 0.0001 to 1 µM for the first, > 1 µM for the second.

First: C=C(C)C(=O)N1CCN(c2nc(OC[C@@H]3CCCN3C)nc3c2CCN(c2cccc4ccccc24)C3)CC1CC#N (stereo partly drawn) [Example 261, 2-[1-(2-methylprop-2-enoyl)-4-[2-[[(2S)-1-methylpyrrolidin-2-yl]methoxy]-7-(1-naphthyl)-6,8-dihydro-5H-pyrido[3,4-d]pyrimidin-4-yl]piperazin-2-yl]acetonitrile]
Second: C/C=C/C(=O)N1CCN(c2nc(OC[C@@H]3CCCN3C)nc3c2CCN(c2cccc4ccccc24)C3)CC1CC#N (stereo partly drawn) [Example 263, 2-[1-[(E)-but-2-enoyl]-4-[2-[[(2S)-1-methylpyrrolidin-2-yl]methoxy]-7-(1-naphthyl)-6,8-dihydro-5H-pyrido[3,4-d]pyrimidin-4-yl]piperazin-2-yl]acetonitrile]
The IC50 of the first is higher: > 1 µM for the first, 0.0001 to 1 µM for the second. The second is the more potent here.

`C=CC(=O)N1CCN(c2nc(OC[C@@H]3CCCN3C)nc3c2CCN(c2cccc(C)c2C(F)(F)F)C3)CC1CC#N` (stereo partly drawn) [Example 265] and `C=CC(=O)N1CCN(c2nc(OC[C@H]3CCCN3C)nc3c2CCN(c2cccc(F)c2C(F)(F)F)C3)C[C@@H]1CC#N` [Example 274, 2-((S)-1-acryloyl-4-(7-(3-fluoro-2-(trifluoromethyl)phenyl)-2-(((R)-1-methylpyrrolidin-2-yl)methoxy)-5,6,7,8-tetrahydropyrido[3,4-d]pyrimidin-4-yl)piperazin-2-yl)acetonitrile] fall in the same range of IC50: 0.0001 to 1 µM for the first, 0.0001 to 1 µM for the second.

`C=CC(=O)N1CCN(c2nc(OC[C@@H]3C[C@@H](OC)CN3C)nc3c2CCN(c2cccc4ccccc24)C3)CC1CC#N` (stereo partly drawn) [Example 268, 2-(1-acryloyl-4-(2-(((2S,4R)-4-methoxy-1-methylpyrrolidin-2-yl)methoxy)-7-(naphthalen-1-yl)-5,6,7,8-tetrahydropyrido[3,4-d]pyrimidin-4-yl)piperazin-2-yl)acetonitrile] and `C=CC(=O)N1CCN(c2nc(OC[C@@H]3COCCN3C)nc3c2CCN(c2cccc4ccccc24)C3)CC1CC#N` (stereo partly drawn) [Example 272, 2-(1-acryloyl-4-(2-(((S)-4-methylmorpholin-3-yl)methoxy)-7-(naphthalen-1-yl)-5,6,7,8-tetrahydropyrido[3,4-d]pyrimidin-4-yl)piperazin-2-yl)acetonitrile] fall in the same range of IC50: 0.0001 to 1 µM for the first, 0.0001 to 1 µM for the second.

`C=CC(=O)N1CCN(c2nc(OCC(C)(C)N(C)C)nc3c2CCN(c2cccc4ccccc24)C3)CC1CC#N` (stereo not drawn) [Example 269, 2-(1-acryloyl-4-(2-(2-(dimethylamino)-2-methylpropoxy)-7-(naphthalen-1-yl)-5,6,7,8-tetrahydropyrido[3,4-d]pyrimidin-4-yl)piperazin-2-yl)acetonitrile] and `C=CC(=O)N1CCN(c2nc(OC[C@H]3CN(C)CCO3)nc3c2CCN(c2cccc4ccccc24)C3)CC1CC#N` (stereo partly drawn) [Example 270, 2-(1-acryloyl-4-(2-(((R)-4-methylmorpholin-2-yl)methoxy)-7-(naphthalen-1-yl)-5,6,7,8-tetrahydropyrido[3,4-d]pyrimidin-4-yl)piperazin-2-yl)acetonitrile] fall in the same range of IC50: 0.0001 to 1 µM for the first, 0.0001 to 1 µM for the second.

First: C=CC(=O)N1CCN(c2nc(OC[C@@H]3CN(C)CCO3)nc3c2CCN(c2cccc4ccccc24)C3)CC1CC#N (stereo partly drawn) [Example 271, 2-(1-acryloyl-4-(2-(((S)-4-methylmorpholin-2-yl)methoxy)-7-(naphthalen-1-yl)-5,6,7,8-tetrahydropyrido[3,4-d]pyrimidin-4-yl)piperazin-2-yl)acetonitrile]
Second: C=CC(=O)N1CCN(c2nc(OC[C@H]3COCCN3C)nc3c2CCN(c2cccc4ccccc24)C3)CC1CC#N (stereo partly drawn) [Example 273, 2-(1-acryloyl-4-(2-(((R)-4-methylmorpholin-3-yl)methoxy)-7-(naphthalen-1-yl)-5,6,7,8-tetrahydropyrido[3,4-d]pyrimidin-4-yl)piperazin-2-yl)acetonitrile]
The IC50 of the first is lower: 0.0001 to 1 µM for the first, > 1 µM for the second.

`C=CC(=O)N1CCN(c2nc(OC[C@@H]3CCCN3C)nc3c2CCN(c2ccc(F)cc2C(F)(F)F)C3)CC1CC#N` (stereo partly drawn) [Example 276] and `C=CC(=O)N1CCN(c2nc(OC[C@@H]3CCCN3C)nc3c2CCN(c2cccc(Cl)c2C(F)(F)F)C3)CC1CC#N` (stereo partly drawn) [Example 277, 2-(1-acryloyl-4-(7-(3-chloro-2-(trifluoromethyl)phenyl)-2-(((S)-1-methylpyrrolidin-2-yl)methoxy)-5,6,7,8-tetrahydropyrido [3,4-d]pyrimidin-4-yl)piperazin-2-yl)acetonitrile] fall in the same range of IC50: 0.0001 to 1 µM for the first, 0.0001 to 1 µM for the second.

`C=CC(=O)N1CCN(c2nc(OCCN(C)C)nc3c2CCN(c2ccccc2C(F)(F)F)C3)CC1CC#N` (stereo not drawn) [Example 279, 2-(1-acryloyl-4-(2-(2-(dimethylamino)ethoxy)-7-(2-(trifluoromethyl)phenyl)-5,6,7,8-tetrahydropyrido[3,4-d]pyrimidin-4-yl)piperazin-2-yl)acetonitrile] was tested, and the IC50 was 0.0001 to 1 µM.
